For 13 molecules, Ki results are on record in PMC7594070, “N-Alkylated Iminosugar Based Ligands: Synthesis and Inhibition of Human Lysosomal β-Glucocerebrosidase” (Molecules, 2020).

Molecules are shown by their SMILES. Where two headings read alike, the source gives them in different places. Some results are limits rather than exact numbers.

Assay [1] has as its target T1, β-glucosidase/β-galactosidase from Agrobacterium sp. (Abg, GH1) (Agrobacterium sp., UniProt P12614).
T1 sequence (P12614 1-459): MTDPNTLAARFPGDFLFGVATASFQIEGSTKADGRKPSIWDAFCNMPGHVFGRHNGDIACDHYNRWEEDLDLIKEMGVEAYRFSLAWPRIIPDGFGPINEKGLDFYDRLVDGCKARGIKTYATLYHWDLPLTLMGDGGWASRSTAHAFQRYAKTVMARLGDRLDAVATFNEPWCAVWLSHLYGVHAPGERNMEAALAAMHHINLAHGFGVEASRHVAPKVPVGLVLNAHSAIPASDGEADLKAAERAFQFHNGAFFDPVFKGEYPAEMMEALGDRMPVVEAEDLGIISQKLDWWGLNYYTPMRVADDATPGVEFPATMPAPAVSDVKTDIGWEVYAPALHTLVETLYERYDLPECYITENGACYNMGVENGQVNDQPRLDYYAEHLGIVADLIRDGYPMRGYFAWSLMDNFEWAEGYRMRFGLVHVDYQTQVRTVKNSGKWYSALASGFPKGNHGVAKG
The assay can be described thus: Ki determination, Agrobacterium sp. β-glucosidase (Abg). Format: biochemical. Particulars: pH 7, substrate pNP β-Gal, room temperature; read-out: Ki Abg (GH1) β-Glc/Gal. How it is done: (§1) Kinetic studies were performed at room temperature in an appropriate buffer for each enzyme (specific conditions can be found below). All the reactions were performed in half-area 96-well-plates (Corning, Corning, NY, USA) and monitored with a Synergy H1 plate reader (BioTek Instruments, Winooski, VT, USA). In each experiment, the appropriate concentration of the enzyme was incubated with different concentrations of the inhibitors for 2–5 min before initiating the reaction by the addition of substrate. The initial rate was then measured by monitoring the increase in absorbance as a result of the release of 4-nitrophenol at 405 nm for up to five minutes. Ki determinations were performed using two different substrate concentrations. For each substrate concentration, a range of three to six inhibitor concentrations was used. Dixon plots (1/v vs. [I]) were constructed to validate the use of competitive inhibition model and to assess the fit of the data. The data were then fit to a competitive inhibition model using non-linear regression analysis with Grafit 7.0.3 (Erithacus Software, East Grinstead, UK).
Agrobacterium sp. β-glucosidase (Abg): [64, 65] 50 mM sodium phosphate buffer (pH 7).

Assay [2] has as its target lac Z β-galactosidase from E. coli (GH2) (Escherichia coli, UniProt P00722). Put plainly: Ki determination, E. coli lac Z β-galactosidase. Format: biochemical. The note with it: pH 7, substrate pNP β-Gal, room temperature. The method, then:
as §1
E. coli lac z β-galactosidase: 50 mM sodium phosphate, 1.0 mM MgCl2 (pH 7). Substrate: pNP β-Gal, Km = 60 µM.

The target in assay [3] is T2, Fabrazyme = commercial recombinant human lysosomal α-galactosidase (GH27) (Homo sapiens, UniProt P06280).
T2 construct: purchased Fabrazyme
T2 sequence (P06280 32-429): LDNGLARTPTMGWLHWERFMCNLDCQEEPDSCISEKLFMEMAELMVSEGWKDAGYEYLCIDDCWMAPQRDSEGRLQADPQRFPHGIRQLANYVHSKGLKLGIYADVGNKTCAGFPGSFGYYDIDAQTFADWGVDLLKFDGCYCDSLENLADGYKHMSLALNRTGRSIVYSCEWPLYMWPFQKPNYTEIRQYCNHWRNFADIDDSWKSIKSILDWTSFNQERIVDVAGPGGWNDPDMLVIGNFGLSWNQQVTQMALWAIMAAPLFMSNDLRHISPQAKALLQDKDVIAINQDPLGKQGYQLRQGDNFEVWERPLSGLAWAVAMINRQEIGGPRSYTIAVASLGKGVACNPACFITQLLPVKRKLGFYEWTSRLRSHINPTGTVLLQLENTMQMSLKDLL
Put plainly: Ki determination, Fabrazyme (acid α-galactosidase). It counts as biochemical. Particulars: pH 5.5, substrate 2,4-DNP α-Gal, room temperature. How it is done:
as §1, with “The initial rate was then measured by monitoring the increase in absorbance as a result of the release of 4-nitrophenol at 405 nm for up to five minutes.” left out
Fabrazyme (Acid α-galactosidase): 20 mM sodium citrate, 50 mM sodium phosphate, 1.0 mM tetrasodium EDTA, 0.25% v/v Triton X-100® and 0.25% w/v taurocholic acid buffer (pH 5.5).

The target in assay [4] is α-glucosidase from Saccharomyces cerevisiae (GH13). Put plainly: Ki determination, S. cerevisiae α-glucosidase. It counts as biochemical. The note with it: pH 7.0, substrate pNP α-Glc, room temperature; read-out: Ki S. cer. (GH13) α-Glc. The method, then: as §1
S. cerevisiae α-Glucosidase: 50 mM sodium phosphate buffer (pH 7.0). Substrate: pNP α-Glc, Km = 0.75 mM.

The target in assay [5] is T3, recombinant human lysosomal β-glucocerebrosidase (GCase, GH30) (Homo sapiens, UniProt P04062).
T3 sequence (P04062 40-536): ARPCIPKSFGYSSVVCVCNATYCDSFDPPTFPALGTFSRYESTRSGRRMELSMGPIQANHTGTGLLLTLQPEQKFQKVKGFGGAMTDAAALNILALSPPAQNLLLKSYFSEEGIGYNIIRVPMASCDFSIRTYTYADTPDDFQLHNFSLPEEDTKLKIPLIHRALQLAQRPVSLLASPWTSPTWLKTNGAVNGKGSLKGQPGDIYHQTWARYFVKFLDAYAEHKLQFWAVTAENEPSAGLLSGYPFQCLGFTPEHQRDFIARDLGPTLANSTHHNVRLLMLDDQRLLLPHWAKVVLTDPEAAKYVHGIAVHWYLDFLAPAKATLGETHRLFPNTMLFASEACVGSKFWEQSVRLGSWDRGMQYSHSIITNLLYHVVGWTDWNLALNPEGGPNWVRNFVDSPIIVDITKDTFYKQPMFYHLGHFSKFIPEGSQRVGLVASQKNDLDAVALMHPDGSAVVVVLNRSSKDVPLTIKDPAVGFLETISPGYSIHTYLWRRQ
The assay can be described thus: Ki determination, GCase (β-glucocerebrosidase). It counts as biochemical. How it is done:
as §1
GCase (β-glucocerebrosidase): 20 mM sodium citrate, 50 mM sodium phosphate, 1.0 mM tetrasodium EDTA, 0.25% v/v Triton X-100® and 0.25% w/v taurocholic acid buffer (pH 7). Substrate: 2,4-DNP β-Glc, Km = 2.7 mM.

Assay [6] addresses GCase. Particulars: read-out: Ki GCase; cited from earlier work.
The mark [7] stands for this setting: pH 7, substrate 2,4-DNP β-Glc, room temperature, read-out: Ki GCase (GH30) β-Glc.
Setting [8] is: values repeated in running text, read-out: Ki for GCase.

Chain of lac Z β-galactosidase from E. coli (GH2) (P00722 2-1024 limits assumed): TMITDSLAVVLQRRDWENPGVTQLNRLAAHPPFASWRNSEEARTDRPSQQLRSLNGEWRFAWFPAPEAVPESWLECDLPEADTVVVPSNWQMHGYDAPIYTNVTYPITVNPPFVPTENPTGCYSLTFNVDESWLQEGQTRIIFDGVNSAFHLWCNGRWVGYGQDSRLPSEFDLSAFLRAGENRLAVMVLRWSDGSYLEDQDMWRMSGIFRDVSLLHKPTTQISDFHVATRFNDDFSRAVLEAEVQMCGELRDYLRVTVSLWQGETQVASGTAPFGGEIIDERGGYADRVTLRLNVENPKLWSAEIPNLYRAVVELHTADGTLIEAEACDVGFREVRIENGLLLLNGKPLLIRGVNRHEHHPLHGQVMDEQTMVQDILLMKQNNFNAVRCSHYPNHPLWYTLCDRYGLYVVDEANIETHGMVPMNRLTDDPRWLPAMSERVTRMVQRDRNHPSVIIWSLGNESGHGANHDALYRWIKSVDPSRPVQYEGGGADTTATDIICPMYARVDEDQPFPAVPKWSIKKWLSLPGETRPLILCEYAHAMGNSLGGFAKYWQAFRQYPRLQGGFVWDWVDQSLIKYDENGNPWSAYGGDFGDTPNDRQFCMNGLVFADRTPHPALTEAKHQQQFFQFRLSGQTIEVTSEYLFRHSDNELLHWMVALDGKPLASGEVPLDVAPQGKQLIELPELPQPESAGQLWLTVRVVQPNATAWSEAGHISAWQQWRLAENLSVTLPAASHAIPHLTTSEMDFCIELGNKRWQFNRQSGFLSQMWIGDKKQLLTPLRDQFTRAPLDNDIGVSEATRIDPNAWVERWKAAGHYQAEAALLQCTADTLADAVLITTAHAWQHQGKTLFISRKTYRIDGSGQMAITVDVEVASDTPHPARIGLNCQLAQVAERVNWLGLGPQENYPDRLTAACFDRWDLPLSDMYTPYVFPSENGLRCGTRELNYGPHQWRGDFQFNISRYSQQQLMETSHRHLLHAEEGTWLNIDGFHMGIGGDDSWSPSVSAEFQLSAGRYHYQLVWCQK

Regarding `N#CCCCCCOc1ccc(C(=O)OCCCCCCN2C[C@@H](O)[C@H](O)[C@@H](O)C2)cc1` [Compound 46, N-(6-((4-((5-Cyanopentyl)oxy)benzoyl)oxy)hexyl)-1,5-dideoxy-1,5-imino-D-xylitol], the Ki in assay [1] is 12.1 µM; in assay [2] it was over 1000 µM; in assay [3], over 1000 µM; in assay [4], over 1000 µM; in assay [5] (setting [7]), 0.62 µM.

In the case of `O=C(OCCCCCCN1C[C@H](O)[C@@H](O)[C@H](O)[C@H]1CO)c1ccc(OCCOCCOC(C(F)(F)F)(C(F)(F)F)C(F)(F)F)cc1` [Compound 49, N-(6-((4-(2-(2-(Nonafluoro-tert-butyloxy)ethoxy)ethoxy)benzoyl)oxy)hexyl)-1,5-dideoxy-1,5-imino-D-glucitol], the Ki was 3.6 µM in assay [1]; over 1000 µM in assay [2]; over 1000 µM in assay [3]; over 1000 µM in assay [4]; 0.35 µM in assay [5] (setting [7]).

As to `C#CCOc1ccc(C(=O)OCCCCCCN2C[C@@H](O)[C@H](O)[C@@H](O)C2)cc1` [Compound 52, N-(6-((4-(Propargyloxy)benzoyl)oxy)hexyl)-1,5-dideoxy-1,5-imino-D-xylitol], the Ki in assay [2] was over 1000 µM; in assay [3] it was over 1000 µM; in assay [4], 267 µM; in assay [5] (setting [7]) it was 0.74 µM.

Take `CC[C@@H]1[C@H](O)[C@@H](O)[C@H](O)CN1CCCCCC(=O)OC` [Compound 19]: the Ki in assay [6] was 57 µM.

In the case of `CN(C)c1cccc2c(S(=O)(=O)NCCc3ccc(C(=O)OCCCCCCN4C[C@H](O)[C@@H](O)[C@H](O)[C@H]4CO)cc3)cccc12` [Compound 55, N-(6-((4-(2-(Dansylamino)ethyl)benzoyl)oxy)hexyl)-1,5-dideoxy-1,5-imino-D-glucitol], the Ki in assay [1] is 0.06 µM; in assay [2], 89 µM; in assay [3] it was over 1000 µM; in assay [4], 8.7 µM; in assay [5] (setting [8]), 0.018 µM.

For the molecule `[N-]=[N+]=NCCOCCOc1ccc(C(=O)OCCCCCCN2C[C@H](O)[C@@H](O)[C@H](O)[C@H]2CO)cc1` [Compound 47, N-(6-((4-(2-(2-Azidoethoxy)ethoxy)benzoyl)oxy)hexyl)-1,5-dideoxy-1,5-imino-D-glucitol], the Ki in assay [1] was 1.7 µM; in assay [2], over 1000 µM; in assay [3], over 1000 µM; in assay [4], 221 µM; in assay [5] (setting [7]), 0.09 µM.

As for `O=C(NCCc1ccc(C(=O)OCCCCCCN2C[C@@H](O)[C@H](O)[C@@H](O)C2)cc1)OCc1ccccc1` [Compound 54, N-(6-((4-(2-(((Benzyloxy)carbonyl)amino)ethyl)benzoyl)oxy)hexyl)-1,5-dideoxy-1,5-imino-D-xylitol], the Ki in assay [1] was 0.58 µM; in assay [2], over 1000 µM; in assay [3], over 1000 µM; in assay [4], over 1000 µM; in assay [5] (setting [7]), 0.31 µM.

For `O=C(NCCc1ccc(C(=O)OCCCCCCN2C[C@H](O)[C@@H](O)[C@H](O)[C@H]2CO)cc1)OCc1ccccc1` [Compound 53, N-(6-((4-(2-(((Benzyloxy)carbonyl)amino)ethyl)benzoyl)oxy)hexyl)-1,5-dideoxy-1,5-imino-D-glucitol], the Ki is 0.06 µM in assay [1]; 424 µM in assay [2]; over 1000 µM in assay [3]; 8.1 µM in assay [4]; 0.022 µM in assay [5] (setting [8]).

On to `O=C(OCCCCCCN1C[C@@H](O)[C@H](O)[C@@H](O)C1)c1ccc(OCCOCCOC(C(F)(F)F)(C(F)(F)F)C(F)(F)F)cc1` [Compound 50, N-(6-((4-(2-(2-(Nonafluoro-tert-butyloxy)ethoxy)ethoxy)benzoyl)oxy)hexyl)-1,5-dideoxy-1,5-imino-D-xylitol], for which the Ki is 23.7 µM in assay [1]; 255 µM in assay [2]; over 1000 µM in assay [3]; over 1000 µM in assay [4]; 0.4 µM in assay [5] (setting [7]).

Take `N#CCCCCCOc1ccc(C(=O)OCCCCCCN2C[C@H](O)[C@@H](O)[C@H](O)[C@H]2CO)cc1` [Compound 45, N-(6-((4-((5-Cyanopentyl)oxy)benzoyl)oxy)hexyl)-1,5-dideoxy-1,5-imino-D-glucitol]: the Ki was 1.31 µM in assay [1]; over 1000 µM in assay [2]; over 1000 µM in assay [3]; 23.7 µM in assay [4]; 0.28 µM in assay [5] (setting [7]).

For `CN(C)c1cccc2c(S(=O)(=O)NCCc3ccc(C(=O)OCCCCCCN4C[C@@H](O)[C@H](O)[C@@H](O)C4)cc3)cccc12` [Compound 56, N-(6-((4-(2-(Dansylamino)ethyl)benzoyl)oxy)hexyl)-1,5-dideoxy-1,5-imino-D-xylitol], the Ki in assay [1] is 0.76 µM; in assay [2], 198 µM; in assay [3] it was over 1000 µM; in assay [4], over 1000 µM.

Consider `[N-]=[N+]=NCCOCCOc1ccc(C(=O)OCCCCCCN2C[C@@H](O)[C@H](O)[C@@H](O)C2)cc1` [Compound 48, N-(6-((4-(2-(2-Azidoethoxy)ethoxy)benzoyl)oxy)hexyl)-1,5-dideoxy-1,5-imino-D-xylitol], for which the Ki in assay [1] is 32.6 µM; in assay [2], over 1000 µM; in assay [3] it was over 1000 µM; in assay [4], over 1000 µM; in assay [5] (setting [7]), 1.4 µM.

On to `C#CCOc1ccc(C(=O)OCCCCCCN2C[C@H](O)[C@@H](O)[C@H](O)[C@H]2CO)cc1` [Compound 51, N-(6-((4-(Propargyloxy)benzoyl)oxy)hexyl)-1,5-dideoxy-1,5-imino-D-glucitol], for which the Ki in assay [1] is 0.0022 µM; in assay [2] it was over 1000 µM; in assay [3], over 1000 µM; in assay [4], 4.9 µM; in assay [5] (setting [7]), 0.37 µM.
